The experiment has as its system MCT-PAH. Description: Monocrotaline-induced PAH rat model, right heart catheterisation and histology. Type of experiment: in vivo, Ratten. To be noted: MCT-PAH rats, three times weekly for two weeks, intratracheal nebulisation 275 nmol/kg. An excerpt: Um das therapeutische Potenzial der EP300/CREBBP-Hemmung in vivo weiter zu erforschen, haben die Erfinder Versuchstiere in drei verschiedenen Nagetiermodellen mit etablierter PAH mit der Substanz SGC-CBP30 behandelt, wobei SGC-CBP30 durch intra-tracheale Vernebelung über zwei Wochen lang dreimal wöchentlich verabreicht wurde. Es wurden folgende drei verschiedenen Nagetiermodelle für eine PAH (FHR-PAH, MCT-PAH und SuHx-PAH) getestet: • Fawn-hooded hypertensive Ratten (FHR): Das ist ein genetischer Rattenstamm, bei dem PAH im Alter spontan auftritt und der ähnliche PAH-Anomalien aufweist, wie sie bei IPAH bei Menschen nach 40 Wochen auftreten. • Durch Monocrotalin (MCT) induziertes PAH-Rattenmodell. • Ein SUGEN5416/chronische Hypoxie (SuHx)-Rattenmodell für PAH, bei dem die Ratten eine einmalige Injektion von SUGEN5416 erhielten und anschließend einer chronischen Hypoxie (10% O2) ausgesetzt wurden (SuHx-PAH).
Für die MCT-PAH wurden männlichen und weiblichen SD-Ratten (Sprague-Dawley-Ratten) subkutan 60 mg/kg MCT (Sigma, Katalog: C2401) injiziert, um PAH zu induzieren. Bei der SuHx-PAH erhielten SD-Ratten eine einmalige subkutane Injektion von SUGEN5416 (20 mg/kg) und wurden drei Wochen lang einer normobaren Hypoxie ausgesetzt, bevor sie für zwei Wochen an die Raumluft zurückkehrten. Zwei Wochen nach der MCT-Injektion bzw. drei Wochen nach der SUGEN5416-Injektion (sobald PAH festgestellt wurde) wurden die Ratten nach dem Zufallsprinzip in vier Gruppen eingeteilt und erhielten zwei Wochen lang dreimal wöchentlich entweder Vehikel (Verabreichung von 1 % Methylcellulose in destilliertem Wasser oder intratracheale Vernebelung von 4 % DMSO in PBS als Negativkontrolle), SGC-CBP30 (Verabreichung von 10 mg/kg in 1 % Methylcellulose + destilliertem Wasser) oder SGC-CBP30 (intratracheale Vernebelung von 275 nmol/kg in 4 % DMSO + PBS). Einjährige männliche und weibliche FHR-Ratten mit etablierter PAH wurden in dieselben vier Gruppen wie beim MCT-Modell eingeteilt und den selben Behandlungsmethoden unterzogen. Für die Vernebelung wurden die Ratten mit 3%igem Isofluran betäubt. Ein 16-Gauge-Katheter wurde in die Luftröhre eingeführt. Ein Vernebler (Aerogen) wurde an den Katheter angeschlossen, und für jede Behandlung wurde ein Volumen von 50 µl SGC-CBP30 oder dessen Vehikel (als Negativkontrolle) verabreicht. Nach zweiwöchiger Behandlung wurde eine Rechtsherzkatheteruntersuchung bei geschlossenem Thorax durchgeführt, um folgende hämodynamischen Daten zu erfassen: Systolischer Rechtsventrikulärer Druck (RVSP), mittlerer PA-Druck (mPAP), Herzzeitvolumen (CO) und Schlagvolumen (SV). Der Gesamtwiderstand der Lunge (TPR) wurde durch Division von mPAP durch CO ermittelt. Nach der hämodynamischen Messung wurden den Ratten Gewebeproben entnommen. Die Experimente wurden gemäß den Richtlinien des Canadian Council on Animal Care durchgeführt. Alle Protokolle wurden von der institutionellen Ethikkommission für Tiere (Tierschutzausschuss der Universität Laval) geprüft und genehmigt (Protokollnummer 2019-018-2). Alle Experimente folgten den Richtlinien für die präklinische Forschung bei PAH.
Der schwarze Balken zeigt 50 µm an. Die Daten sind als Mittelwert ± SD angegeben und die statistische Analyse wurde mit einem ungepaarten Student's t-Test durchgeführt. FHR, MCT und SU5416/chronische Hypoxie-Ratten: *P<0,05, **P<0,01 und ***P<0,001 gegenüber den mit Vehikel behandelten Gruppen. MCT-Rattenmodell: §P<0,05, §§P<0,01 und §§§P<0,001 gegenüber der unbehandelten Kontrollgruppe. • A: Schematische Darstellung des Versuchsaufbaus für die Behandlung von Fawn-hooded hypertensive Ratten (FHR) mit dem EP300/CREBBP-Inhibitor SGC-CBP30, der selektiv auf die Acetyltransferase EP300/CREBBP wirkt. […]

Regarding `COc1ccc(CCc2nc3cc(-c4c(C)noc4C)ccc3n2C[C@H](C)N2CCOCC2)cc1Cl` [SGC-CBP30, 2-[2-(3-Chloro-4-methoxyphenyl)ethyl]-5-(3,5-dimethyl-1,2-oxazol-4-yl)-1-[(S)-2-(morpholin-4-yl)propyl]-1H-benzimidazole], the CO result is “verbesserten sich nach der Behandlung mit der Substanz SGC-CBP30 bei FHR-PAH und MCT-PAH signifikant”, the SV result is on record as “verbesserten sich nach der Behandlung mit der Substanz SGC-CBP30 bei FHR-PAH und MCT-PAH signifikant” and the “mediale Wanddicke der distalen PAs” value is “signifikant verringert”. Further, where the note is “start two weeks after MCT”, the RVSP result is recorded as “signifikanten Senkung” and the mPAP entry is recorded as “signifikanten Senkung”. Besides, for the setting “mPAP divided by CO”, the TPR result is reported as “signifikanten Senkung”.

The record behind these values is patent publication EP4257135A1, “BENZIMIDAZOLE DERIVATIVES FOR PULMONARY ARTERIAL HYPERTENSION” (Justus-Liebig-Universität Gießen, priority 2022, dated 2023).
